Reference: the supplement of paper PMC8967900

What was measured:
Experiment in all cases: selective drug sensitivity score (sDSS, relative to normal bone marrow) (sDSS (score)); higher = more potent and effective on the cell line relative to normal bone marrow cells
Details in all cases: 72 h
[1] = system: KASUMI-2
[2] = system: KARPAS-45
[3] = system: SEM cells
[4] = system: ALL-SIL
[5] = system: PF-382
[6] = system: COG-LL-319h
[7] = system: CCRF-CEM
[8] = system: P12-ICHIKAWA
[9] = system: CCRF-HSB2
[10] = system: COG-LL-355h
[11] = system: MN-60
[12] = system: NALL-1
[13] = system: REH
[14] = system: NALM-6
[15] = system: RCH-ACV
[16] = system: MOLT-14
[17] = system: KOPN-8
[18] = system: JURKAT
[19] = system: 697
[20] = system: MHH-CALL-4
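Also: ALL cell lines in 384-well plates, five doses spanning 10,000-fold, each plate scaled between vehicle and 100 µmol/L benzalkonium chloride controls, sDSS an adapted area-under-curve metric.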

Compound	selective drug sensitivity score [1]	selective drug sensitivity score [2]	selective drug sensitivity score [3]	selective drug sensitivity score [4]	selective drug sensitivity score [5]	selective drug sensitivity score [6]	selective drug sensitivity score [7]	selective drug sensitivity score [8]	selective drug sensitivity score [9]	selective drug sensitivity score [10]	selective drug sensitivity score [11]	selective drug sensitivity score [12]	selective drug sensitivity score [13]	selective drug sensitivity score [14]	selective drug sensitivity score [15]	selective drug sensitivity score [16]	selective drug sensitivity score [17]	selective drug sensitivity score [18]	selective drug sensitivity score [19]	selective drug sensitivity score [20]
COc1cc(C)[nH]c(=O)c1CNC(=O)c1c(C)n([C@H](C)C2CCOCC2)c2ccccc12 [CPI-360] (top concentration 10000 nM)	0	0	0	0	0	0	0	0	0	0	0	0	0	0	0	0	0	0.1	0	0
CNC(=O)c1ccc(-c2cnc3ncc(Cc4ccc5ncccc5c4)n3n2)cc1F [Capmatinib] (top concentration 1000 nM)	-0.06	-0.06	-0.06	-0.06	-0.06	14.9	0.04	-0.06	-0.06	0.04	-0.06	-0.06	-0.06	0.24	-0.06	-0.06	-0.06	-0.06	-0.06	-0.06
COc1cc2c(Oc3ccc4[nH]c(C)cc4c3F)ncnc2cc1OCCCN1CCCC1 [Cediranib] (top concentration 1000 nM)	0	0.2	0.2	0	0	0	0.1	0	3.4	0	0	0	0	0	0	0	0	0	0.9	0
CCN(CC)CCCC(C)Nc1ccnc2cc(Cl)ccc12 (stereo not given) [Chloroquine] (top concentration 100000 nM)	-8.14	1.26	-0.74	-0.74	-2.34	-5.84	-2.94	-3.94	-2.34	-0.34	-2.74	-8.84	0.96	-2.74	-0.14	-2.84	-1.14	-5.04	-2.14	-1.44
C[C@@H](Oc1cc(-c2cnn(C3CCNCC3)c2)cnc1N)c1c(Cl)ccc(F)c1Cl [Crizotinib] (top concentration 1000 nM)	-0.54	-0.24	-0.54	5.46	-0.54	-0.54	-0.54	-0.54	4.26	2.16	-0.54	-0.54	-0.54	0.96	-0.54	-0.54	-0.54	-0.54	-0.24	-0.54
COc1cc2ncnc(Nc3ccc(F)c(Cl)c3)c2cc1NC(=O)/C=C/CN1CCCCC1 [Dacomitinib] (top concentration 1000 nM)	-1.64	0.36	0.86	-1.04	-0.94	-1.24	0.26	-1.44	3.76	1.06	-1.64	-1.64	-1.04	-1.64	0.16	0.86	-0.34	-1.64	-0.34	1.86
CCN(CC)CCN(Cc1ccc(-c2ccc(C(F)(F)F)cc2)cc1)C(=O)Cn1c(SCc2ccc(F)cc2)nc(=O)c2c1CCC2 [Darapladib] (top concentration 1000 nM)	0.98	-1.32	-1.42	-1.42	-1.22	-1.42	-1.42	-1.42	-0.52	-1.42	-1.42	6.18	-1.42	-1.42	7.28	-1.42	7.18	-1.42	-1.42	2.68
C[C@@H]1C[C@H]2[C@@H]3CCC4=CC(=O)C=C[C@]4(C)[C@@]3(F)[C@@H](O)C[C@]2(C)[C@@]1(O)C(=O)CO [Dexamethasone] (top concentration 10000 nM)	14.6	24.4	10.9	18.6	1.48	26.5	13.9	28	18.8	30.7	-0.52	34.1	-1.52	30.8	38.8	-1.52	33.9	-1.52	32.2	36.7
Cc1cc(C)c(CNC(=O)c2cc(-c3ccc(CN4CCOCC4)cc3)cc3c2cnn3C2CCCC2)c(=O)[nH]1 [EPZ-5687] (top concentration 10000 nM)	-0.36	-0.26	-0.36	-0.36	-0.36	-0.36	0.14	-0.36	-0.06	-0.36	-0.36	5.34	6.64	-0.36	-0.36	-0.36	-0.36	-0.36	-0.36	-0.36
C=C1C[C@@H]2CC[C@@]34C[C@H]5O[C@H]6[C@@H](O3)[C@H]3O[C@H](CC[C@@H]3O[C@H]6[C@H]5O4)CC(=O)C[C@@H]3[C@@H](OC)[C@@H](C[C@H](O)CN)O[C@H]3C[C@H]3O[C@@H](CC[C@@H]1O2)C[C@@H](C)C3=C [Eribulin] (top concentration 1000 nM)	15.5	21.7	22.1	23.2	15.1	14.8	19.9	16.7	22.8	4.4	3.8	15.8	18.9	16	25.4	25.2	27	26.9	19.5	5.6
O=c1[nH]cc(F)c(=O)[nH]1 [Fluorouracil] (top concentration 10000 nM)	1.56	0.46	2.76	-0.64	-0.64	6.56	3.06	0.46	-0.64	1.76	-0.64	-0.24	1.76	1.86	2.96	5.76	2.96	0.16	3.46	-0.14
CC(C)C(=O)Nc1ccc([N+](=O)[O-])c(C(F)(F)F)c1 [Flutamide] (top concentration 10000 nM)	0.34	0.74	2.44	-0.26	0.14	-0.56	-0.16	0.74	-0.46	-0.56	-0.56	8.04	-0.56	-0.46	0.14	-0.56	4.24	1.84	1.94	1.24
C[C@]12CC[C@@H]3c4ccc(O)cc4C[C@@H](CCCCCCCCC[S+]([O-])CCCC(F)(F)C(F)(F)F)[C@H]3[C@@H]1CC[C@@H]2O (stereo not given in full) [Fulvestrant] (top concentration 1000 nM)	0	0	0	5.3	0	0	0	0	0	1.3	0	1.6	0.2	0	0	0	0	0	0	0
CCCOc1ccn2c(C(C)=O)cc(-c3ccccc3S(C)(=O)=O)c2c1 [GSK2801] (top concentration 10000 nM)	4.84	0.44	-0.36	-0.36	0.54	4.44	-0.26	-0.16	-0.36	-0.36	-0.36	-0.36	-0.36	-0.36	3.24	2.64	1.94	-0.26	-0.16	-0.36
Cc1cccc(-c2nn3c(c2-c2ccnc4ccc(C(N)=O)cc24)CCC3)n1 [Galunisertib] (top concentration 1000 nM)	0	0	0.1	0	0	0	0	0	0	0	0	0	0	0	0	0	0	0	0	0
O=C(O)CNC(=O)c1c(O)c2ccccc2n(Cc2ccccc2)c1=O [IOX-2] (top concentration 50000 nM)	3.38	-0.82	-0.82	-0.82	-0.82	4.18	-0.82	-0.42	-0.82	-0.82	-0.42	-0.82	-0.82	-0.32	1.18	-0.82	2.48	-0.82	2.28	-0.82
C#Cc1cccc(Nc2ncnc3cc4c(cc23)OCCOCCOCCO4)c1 [Icotinib] (top concentration 10000 nM)	2.9	1.4	3	0.8	0.5	1.8	0.3	0.6	2.6	0.1	0.6	6.5	0	0	1.2	0	5.7	0	3.2	0
